PubChem BioAssay AID248 (DTP/NCI, 2004)
Values joined by “and” are separate entries in the source; they are usually repeats but may differ in a detail not shown here. Equal entries are not always repeated. Inconclusive results and toxic doses are left out. Rule as the data show it: active = T/C of 150% or more; inactive = T/C below 125%.

Test system: L1210 leukemia ip in BDF1 mice, survival T/C
Assay: NCI In Vivo Anticancer Drug Screen. Data for tumor model L1210 Leukemia (intraperitoneal) in B6D2F1 (BDF1) mice
Settings: endpoint: mean survival time, higher = longer survival
Outline: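 Survival endpoint. Drug-treated group vs vehicle group, expressed as T divided by C. Tumor passaged by transplantation.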

[1] = dose: 100.0 mg/kg/injection, schedule: Q01DX001 (ip), vehicle: saline
[2] = dose: 200.0 mg/kg/injection, schedule: Q01DX001 (ip), vehicle: saline
[3] = dose: 400.0 mg/kg/injection, schedule: Q01DX001 (ip), vehicle: saline
[4] = dose: 100.0 mg/kg/injection, schedule: Q04DX003 (ip), vehicle: saline with Tween-80
[5] = dose: 200.0 mg/kg/injection, schedule: Q04DX003 (ip), vehicle: saline with Tween-80
[6] = dose: 400.0 mg/kg/injection, schedule: Q04DX003 (ip), vehicle: saline with Tween-80
[7] = dose: 100.0 mg/kg/injection, schedule: Q04DX003 (ip), vehicle: saline
[8] = dose: 75.0 mg/kg/injection, schedule: Q01DX001 (ip), vehicle: saline
[9] = dose: 150.0 mg/kg/injection, schedule: Q01DX001 (ip), vehicle: saline

Measured: T/C

CN(C)c1ccc(C(C#N)OC(=O)c2ccccc2)cc1 (stereo not drawn)
inactive: dose: 100.0 mg/kg/injection, schedule: Q01DX001 (ip), vehicle: carboxymethylcellulose (CMC) 89 % of control | dose: 100.0 mg/kg/injection, schedule: Q01DX009 (ip), vehicle: carboxymethylcellulose (CMC) 93 % of control | dose: 100.0 mg/kg/injection, schedule: Q04DX002 (ip), vehicle: carboxymethylcellulose (CMC) 97 % of control | dose: 100.0 mg/kg/injection, schedule: Q04DX003 (ip), vehicle: carboxymethylcellulose (CMC) 100 % of control | dose: 200.0 mg/kg/injection, schedule: Q01DX001 (ip), vehicle: carboxymethylcellulose (CMC) 94 % of control | dose: 200.0 mg/kg/injection, schedule: Q01DX009 (ip), vehicle: carboxymethylcellulose (CMC) 98 % of control and 90 % of control | dose: 200.0 mg/kg/injection, schedule: Q04DX002 (ip), vehicle: carboxymethylcellulose (CMC) 97 % of control | dose: 200.0 mg/kg/injection, schedule: Q04DX003 (ip), vehicle: carboxymethylcellulose (CMC) 89 % of control | dose: 400.0 mg/kg/injection, schedule: Q01DX001 (ip), vehicle: carboxymethylcellulose (CMC) 91 % of control | dose: 400.0 mg/kg/injection, schedule: Q01DX009 (ip), vehicle: carboxymethylcellulose (CMC) 98 % of control and 86 % of control | dose: 400.0 mg/kg/injection, schedule: Q04DX002 (ip), vehicle: carboxymethylcellulose (CMC) 94 % of control | dose: 400.0 mg/kg/injection, schedule: Q04DX003 (ip), vehicle: carboxymethylcellulose (CMC) 94 % of control

Cc1nnc2ccnn2c1C
inactive: [1] 96 % of control | [2] 96 % of control | [3] 100 % of control

CN(N)C(=O)Nc1cccc(Cl)c1
inactive: dose: 75.0 mg/kg/injection, schedule: Q01DX001 (ip), vehicle: carboxymethylcellulose (CMC) 102 % of control | dose: 150.0 mg/kg/injection, schedule: Q01DX001 (ip), vehicle: carboxymethylcellulose (CMC) 107 % of control | dose: 300.0 mg/kg/injection, schedule: Q01DX001 (ip), vehicle: carboxymethylcellulose (CMC) 107 % of control

CCOC(=O)Sc1nc2ccccc2[nH]1
inactive: dose: 75.0 mg/kg/injection, schedule: Q04DX003 (ip), vehicle: saline with Tween-80 101 % of control | dose: 150.0 mg/kg/injection, schedule: Q04DX003 (ip), vehicle: saline with Tween-80 98 % of control | dose: 300.0 mg/kg/injection, schedule: Q04DX003 (ip), vehicle: saline with Tween-80 87 % of control

NC(=O)c1ccc[n+](CC(=O)Nc2ccccc2)c1
inactive: [4] 101 % of control | [5] 97 % of control | [6] 95 % of control

C=C(C)c1c2ccccc2cc2cccc(Sc3ccccc3)c12
inactive: [4] 95 % of control | [5] 96 % of control | [6] 95 % of control

Cc1nc2c(Cl)cc(Cl)cc2s1
inactive: dose: 100.0 mg/kg/injection, schedule: Q01DX001 (ip), vehicle: acetone 100 % of control | [7] 95 % of control | dose: 200.0 mg/kg/injection, schedule: Q01DX001 (ip), vehicle: acetone 106 % of control | dose: 200.0 mg/kg/injection, schedule: Q04DX003 (ip), vehicle: saline 90 % of control | dose: 400.0 mg/kg/injection, schedule: Q01DX001 (ip), vehicle: acetone 102 % of control | dose: 400.0 mg/kg/injection, schedule: Q04DX003 (ip), vehicle: saline 92 % of control

Cc1ccccc1N=Nc1c(O)n(-c2ccc(I)cc2)c(=S)n(-c2ccccc2)c1=O
inactive: dose: 37.5 mg/kg/injection, schedule: Q01DX001 (ip), vehicle: Klucel (hydroxypropylcellulose) (HPC) 103 % of control | dose: 75.0 mg/kg/injection, schedule: Q01DX001 (ip), vehicle: Klucel (hydroxypropylcellulose) (HPC) 113 % of control | dose: 150.0 mg/kg/injection, schedule: Q01DX001 (ip), vehicle: Klucel (hydroxypropylcellulose) (HPC) 105 % of control

CC1(C)C(=O)NC(=O)C1(C)C
inactive: dose: 1.56 mg/kg/injection, schedule: Q03HX024 (ip), vehicle: saline 106 % of control | dose: 3.12 mg/kg/injection, schedule: Q03HX024 (ip), vehicle: saline 100 % of control | dose: 3.12 mg/kg/injection, schedule: Q04DX003 (ip), vehicle: saline 100 % of control | dose: 4.12 mg/kg/injection, schedule: Q01DX009 (ip), vehicle: saline 100 % of control | dose: 6.25 mg/kg/injection, schedule: Q01DX009 (ip), vehicle: saline 106 % of control | dose: 6.25 mg/kg/injection, schedule: Q03HX024 (ip), vehicle: saline 101 % of control | dose: 6.25 mg/kg/injection, schedule: Q04DX003 (ip), vehicle: saline 104 % of control | dose: 8.25 mg/kg/injection, schedule: Q01DX009 (ip), vehicle: saline 100 % of control | dose: 12.5 mg/kg/injection, schedule: Q01DX009 (ip), vehicle: saline 102 % of control | dose: 12.5 mg/kg/injection, schedule: Q03HX024 (ip), vehicle: saline 100 % of control | dose: 12.5 mg/kg/injection, schedule: Q04DX003 (ip), vehicle: saline 104 % of control and 108 % of control | dose: 16.5 mg/kg/injection, schedule: Q01DX009 (ip), vehicle: saline 92 % of control | dose: 18.75 mg/kg/injection, schedule: Q01DX001 (ip), vehicle: saline 105 % of control | dose: 25.0 mg/kg/injection, schedule: Q01DX009 (ip), vehicle: saline 106 % of control | dose: 25.0 mg/kg/injection, schedule: Q04DX003 (ip), vehicle: saline 102 % of control and 105 % of control | dose: 33.0 mg/kg/injection, schedule: Q01DX009 (ip), vehicle: saline 105 % of control | dose: 37.5 mg/kg/injection, schedule: Q01DX001 (ip), vehicle: saline 108 % of control | dose: 50.0 mg/kg/injection, schedule: Q01DX009 (ip), vehicle: saline 102 % of control | dose: 50.0 mg/kg/injection, schedule: Q04DX003 (ip), vehicle: saline 100 % of control and 102 % of control | dose: 66.0 mg/kg/injection, schedule: Q01DX009 (ip), vehicle: saline 90 % of control | [8] 108 % of control | [7] 94 % of control | [9] 103 % of control

O=C(/C(=C\c1ccccc1)Oc1ccc([N+](=O)[O-])cc1)c1ccccc1
inactive: [1] 88 % of control | [2] 92 % of control | [3] 95 % of control

NC1CCCC[N-]1.NC1CCCC[N-]1.NC1CCCC[N-]1.[Cl][Cr]([Cl])[Cl] (stereo not drawn)
inactive: dose: 18.75 mg/kg/injection, schedule: Q04DX003 (ip), vehicle: saline 94 % of control | dose: 37.5 mg/kg/injection, schedule: Q04DX003 (ip), vehicle: saline 92 % of control | dose: 75.0 mg/kg/injection, schedule: Q04DX003 (ip), vehicle: saline 89 % of control

ClC1=C(Cl)C2(Cl)C3C4C=CC(C4)C3N1C2(Cl)Cl (stereo not drawn)
inactive: dose: 50.0 mg/kg/injection, schedule: Q01DX001 (ip), vehicle: saline with Tween-80 98 % of control | dose: 100.0 mg/kg/injection, schedule: Q01DX001 (ip), vehicle: saline with Tween-80 95 % of control

O=S1(=O)Cc2ccccc2-c2ccccc2C1
inactive: dose: 100.0 mg/kg/injection, schedule: Q04DX002 (ip), vehicle: gum acacia 103 % of control | dose: 200.0 mg/kg/injection, schedule: Q04DX002 (ip), vehicle: gum acacia 103 % of control | dose: 400.0 mg/kg/injection, schedule: Q04DX002 (ip), vehicle: gum acacia 106 % of control

CCOC(=O)c1c(N)cc(=O)[nH]c1O
inactive: [8] 101 % of control | [9] 98 % of control | dose: 300.0 mg/kg/injection, schedule: Q01DX001 (ip), vehicle: saline 95 % of control
